One data set concerns CJAS1. The data set can be described thus: Inhibitor effects on induction/expression of CJAS1. The conditions noted are these: data not shown; for CJAS1 transcript accumulation: non-induced material. The data set is classed as in vivo, B. carinata. How it is done:
The effects of the nitric oxide (NO) scavenger 2-phenyl-4,4,5,5-tetramethylimidazolinone-3-oxide-1-oxyl (PTIO), the protein phosphatase type 1 and 2A inhibitor okadaic acid (OKA), the serine/threonine protein kinases inhibitor staurosporine (STAU) and the protein translation inhibitor cycloheximide (CHX) were determined on induction/expression of CJAS1 in B. carinata.

A further data set relates to CJAS1 gene. In words: CJAS1 gene expression by Northern blot after treatments. The note with it: treatment of wild-type Brassica plants; data not shown. The data set is classed as in vivo, B. carinata. The text has this: CJAS1 gene expression was studied via Northern blot of various plant tissues taken from wild-type Brassica plants (data not shown). […] The amount of transcript in flower bud and silique was slightly greater than in the other tissues. […] The rapid response to Cu and MeJA implies a control mechanism sensitive to membrane damage. The activation of CJAS1 transcription by the four different compounds is unusual but not without precedent.

The subject of the next data set is B. carinata. The data set can be described thus: Visual characterization of seed coat color of transformed B. carinata. It is filed as in vivo. The text has this: The plant transformation vectors carrying the antisense genes made with the defense-related cDNAs were used for plant transformation. The plant species used for transformation was a selection of B. carinata, the same selection that was originally treated with Copper chloride. This selection of B. carinata has dark-colored, thick seed coats. For transformation, Agrobacterium tumifaciens strain GV3101/pMP90 (C. Koncz and J. Schell, 1986, Mol. Gen. Genet. 204:383-396) was used. The transformation vectors were introduced into the Agrobacterium strain using standard techniques. Plant explants were co-cultured for three days then transferred to selective media. Plants were selected on kanamycin.
Transformed B. carinata were analyzed by visual characterization. […] A sample comparison of seeds obtained from wild-type B. carinata and transgenic B. carinata expressing antisense CJAS1 (SEQ ID NO:1) is shown in FIG. 2a and FIG. 2b.

In data set [1] the test system is Escherichia coli GMP synthetase mutant ght1. The data set can be described thus: Complementation of Escherichia coli GMP synthetase mutant ght1. It is filed as cell-based. The note with it: cDNA in expression vector. The text has this:
Thus, it is postulated that the protein encodes an amidotransferase activity distinct from GMP synthase that utilizes an aromatic compound for a substrate. This is analogous to a similar step seen for the phenylpropanoid pathway, another pathway that is involved in the formation of fiber (and the seed coat) and is a pathway that utilizes aromatic compounds. In the phenylpropanoid pathway, L-phenyalanine, an aromatic amino acid, is a substrate for the enzyme phenyalanine ammonia lyase (PAL). The enzymatic activity of PAL leads to the formation of cinnamic acid by deamination which eventually leads to the formation of lignin monomers. In the present case, CJAS1 may be a subunit of an enzyme that encodes a […] activity utilized within another secondary metabolite pathway and reduction of the enzyme activity (as evidenced by antisense RNA inhibition of the gene expression) can lead to alteration in the formation of phenolic-related compounds. This alteration may further affect the formation of other compounds in the seed, in particular, compounds that are known to be related to fiber formation.

These results are taken from patent US7524943B2, “Method for the production of plant seed with modified fiber content and modified seed coat” (National Research Council of Canada, priority 2001, dated 2009).

For the molecule `CC1(C)N([O])C(c2ccccc2)=[N+]([O-])C1(C)C` [PTIO, 2-phenyl-4,4,5,5-tetramethylimidazolinone-3-oxide-1-oxyl], in the data set with CJAS1, the CJAS1 transcript accumulation entry is recorded as “increased”.

As for `CC1=CC(=O)CC(C)(C)C1(O)/C=C/C(C)=C\C(=O)O` (stereo not drawn) [ABA], in the data set with CJAS1 gene, the “amount of CJAS1 transcript” value is listed as “further increased”.

With `C[C@@H]1C[C@@H]([C@H](O)CC2CC(=O)NC(=O)C2)C(=O)[C@@H](C)C1` [cycloheximide], the CJAS1 transcript accumulation result in the data set on CJAS1 was “increased”.

`C=C1[C@@H](O)[C@@H]2O[C@]3(CC[C@H](/C=C/[C@@H](C)[C@@H]4CC(C)=C[C@@]5(O[C@H](C[C@@](C)(O)C(=O)O)CC[C@H]5O)O4)O3)CC[C@H]2O[C@@H]1[C@@H](O)C[C@H](C)[C@H]1O[C@@]2(CCCCO2)CC[C@H]1C` [OKA, okadaic acid]: the CJAS1 transcript accumulation result in the data set on CJAS1 is on record as “increased”.

For `CN[C@@H]1C[C@H]2O[C@@](C)([C@@H]1OC)n1c3ccccc3c3c4c(c5c6ccccc6n2c5c31)C(=O)NC4` [STAU, staurosporine], in the data set with CJAS1, the CJAS1 transcript accumulation result is reported as “increased”. Also, the “interaction with MeJA in induction of CJAS1 expression” value in the data set with CJAS1 (with MeJA) is recorded as “acted synergistically”.

`O=C(O)c1ccccc1O` [SA]: in the data set on CJAS1 gene, the “amount of CJAS1 transcript” value was “further increased”.

With `CC/C=C\CC1C(=O)CCC1CC(=O)OC` (stereo not drawn) [MeJA], the “amount of CJAS1 transcript” value in the data set with CJAS1 gene is “further increased”.

In the case of `[Cl][Cu][Cl]` [Cu, copper chloride], the “amount of CJAS1 transcript” value with CJAS1 gene is “further increased”.

B1: CJAS1 cDNA: copper chloride-induced cDNA from B. carinata, expressed in antisense orientation from a double 35S promoter (nucleic acid, listed as Brassica carinata)
DNA: ATTGCACCTCTCTCTTTATTCTCTCTCTGCTAATCAACCACTCTCTCTATTTACGTTAGCCGGTAAAAAAATGGTTGAGCAGAAAAAGTTCGCTCTGTTTCTAGCGACTCCTGATTCAGAGTTCGTGAAGAAAGAGTACGGAGGATACCACAACGTGTTCGTGTCCACGTTCGGTGACGAAGGAGAGCATTGGGACTCGTTTAGAGTCGTTGAAGGCGAGTTTCCCGACGAGAAAGATCTTGACAAGTACGACGGTTTCGTTATTAGTGGAAGCTCTCACGATTCCTTCGAGAATGATCCTTGGATCCTTAGGCTATGTGAGATCGTCAAGATACTCGATGAGAAGAAGAAGAAAATTCTTGGCATATGCTTTGGTCACCAGATCATAGCCAGAGTAAGAGGAGGAACAGTGGGAAGAGCAAGGAAGGGACCAGAACTTAAGCTTACAGACATAACCATCGTGAAGGATGCGATTAAACCAGGAAGTTTCTTCGGAAACGAGATTCCGGATAGCATAGCCATCCTAAAGTTACATCAGGACGAAGTGTTAGTGTTGCCTGAATCTGCTAAAGTACTAGCTTATTCAGAAAAGTACGAGGTGGAGATGTTCTCCATTGAGGATCATTTATTCTGTATTCAAGGACATCCCGAGTATAACAGAGAGATTCTCCACGAGATCGTTGATCGTGTTCTTCGTCTTGGCTTCATCAAGGAAGATTTTGCGGATGCGGCAAAAGCCTCGATGGAGAATAGGGGAGCAGACAGGAAACTTTTGGAGACGATTTGCAAGAATTTTCTCAAAGGCAGAGTTCCAGCTAATTAATTAGTTTCACTCCCAAATTATCTATTTGGCTCTTGTTATATTGGAGCTAGCACTTATGGATTTATTATCTTGCTGTATTGTATTCAATATATAACCTATTAATCTCATCCTTGTCAAGGAAACAAAAACTCATATTAATCTCAATGTCATATTTATGTGTTGTTACCCATAAGTAAAATTATTCAATAAAAACTATAGTTTTGCAAAAAAAAAAAAAAAAA
On to B1, for which the “transformants producing a lighter-colored (yellow) seed” value in the data set with B. carinata (CJAS1 cDNA antisense) is “over 50%”. Moreover, in the data set on B. carinata (antisense orientation, 35S promoter, B. carinata), the “seed coat color of transformed plants” value is on record as “yellow-colored seed coats”. In addition, the “complementation of GMP synthetase mutant” value in data set [1] is listed as “no complementation was observed”.
